Assay results: patent publication US11357850B2, “Methods for treating breast cancer using INOS-inhibitory compositions” (The Methodist Hospital, priority 2014, dated 2022)
Read-outs that look alike come from different tables or passages of the source.

Columns and labels:
SUM159 = assay: Cell proliferation assay (WST-1), calcium channel antagonists; type: cell-based, human; settings: 0, 1, 5, and 10 μM for 72 hrs
Experimental: (§1) Cell Proliferation Assay In Vitro. Mesenchymal-like, TNBC cell lines, MDA-MB-231 and SUM159, were grown in DMEM supplemented with 10% fetal bovine serum and 1% antibiotic-antimycotic. Stock solutions of various calcium-channel antagonists (amlodipine, nicardipine, nifedipine, felodipine, isradipine, diltiazem, verapamil, lacidipine, nisoldipine, nitrendipine, nivaldipine, azelnidipine, barnidipine, benidipine, efonidipine, lercanidipine, pranidipine, and manidipine) were prepared in DMSO. Effects on cell proliferation were assayed with the WST-1 method. Briefly, 1,000 (SUM159) and 2,000 (MDA-MB-231) cells/well were plated in a 96-well plate and treated with different concentrations (0, 1, 5, and 10 μM) of calcium channel antagonists for 72 hrs. Proliferation rate was determined by adding premixed WST-1 reagent. After incubation at 37° C. for three hrs, absorbance was read at 450 nm (reference wavelength 690 nm). Results were normalized against vehicle (100%). The antagonists were considered active when proliferation was decreased in ≥30%.

MDA-MB-231 = assay: as above; type: cell-based, human; settings: 0, 1, 5, and 10 μM for 72 hrs
Experimental: as §1

MCF10A = assay: Western blot of PERK/eIF2α/ATF4/ATF3 axis with recombinant TGFβ1; type: cell-based; settings: 10 ng/mL for 24 hrs
From the text: FIG. 3A, FIG. 3B, FIG. 3C, FIG. 3D, FIG. 3E, FIG. 3F, FIG. 3G, FIG. 311, FIG. 3I, and FIG. 3J show iNOS knockdown impairs tumorigenicity and EMT by a dual impact on HIF1α and endoplasmic reticulum (ER) stress/TGFβ/AFT4/ATF3 crosstalk. Proliferation (FIG. 3A), migration (FIG. 3B), and self-renewal capacity (primary and secondary mammospheres) (FIG. 3C) in MDA-MB-231 cells transfected with two different NOS2-directed shRNAs (shRNA1, shRNA2) compared with empty vector (shRNA-EV). […] Selective iNOS inhibition reduced hypoxia (HIF1α), ER stress markers (IRE1α, ATF4) (FIG. 3F), phospho-Smad2/3, Smad2/3 and mature TGFβ protein levels in MDA-MB-231 and SUM159 cells (FIG. 3G). FIG. 3H: Recombinant TGFβ1 (10 ng/mL for 24 hrs) activates the PERK/eIF2α/ATF4/ATF3 axis in MCF10A. […] FIG. 3J: Selective iNOS inhibition is postulated to impair EMT and tumor cell migration by an impact on HIF1α, ER stress (IRE1α/XBP1) and the crosstalk between ATF4, ATF3 and TGFβ. Results were normalized to empty vector. Data are presented as mean±SEM. ****p<0.0001, ***p<0.001, **p<0.01. One-way ANOVA and Bonferroni's post-hoc test;
Western Blot. Cells were cultured at a density of 2.5×10^5 cells/well in 6-well plates with or without iNOS inhibitors for 96 hrs. Cells were resuspended in 1× lysis buffer (Cell Signaling Technology, Inc.) and 1× protease/phosphatase inhibitor cocktail (Thermo Scientific). […]

[1] = system: advanced, PD-L1-positive TNBC; settings: cited from earlier work
[2] = system: ipilimumab-refractory metastatic melanoma; settings: cited from earlier work
[3] = system: unresectable stage III or IV advanced melanoma; settings: cited from earlier work
[4] = system: recurrent or metastatic head and neck squamous cell carcinoma; settings: cited from earlier work
advanced melanoma = settings: 2 mg/kg, 173 patients; cited from earlier work
[5] = system: metastatic PD-L1-positive NSCLC; settings: cited from earlier work
MDA-MB-231 xenografts = MDA-MB-231 xenografts treated with L-NMMA, docetaxel, combination; type: in vivo, mice
Experimental: (§2) Animal Studies. Female SCID Beige mice (4-5 weeks old) (Harlan Laboratories, Houston, Tex., USA) were housed under standard laboratory conditions (22° C.; 12 hrs/12 hrs light/dark cycle and free access to food and water). Either MDA-MB-231 or SUM159 cells (3×10^6) were injected in the right mammary fat pad. Once the tumors reached 150-200 mm^3, the mice were randomized into different groups as follows (n=10/group): 1) Vehicle (saline, i.p.), 2) L-NMMA (either 80 mg/kg or 200 mg/kg, i.p., daily), 3) Docetaxel (20 mg/kg), 4) Combo (L-NMMA and docetaxel).
(§3) Self-renewal and tumor-initiating capacity was determined by MSFE and limiting-dilution assays, respectively, in single cells isolated from tumor tissue. Briefly, breast tumor tissue was minced, digested in DMEM:F12 medium with 100 U/mL of collagenase type 3 (Worthington, Lakewood, N.J., USA) and 0.8 U/mL of dispase (Gibco, Carlsbad, Calif., USA) at 37° C. for 45 min. MSFE was assayed in isolated single cells as stated above. The limiting dilution assay (LDA) was performed injecting either […] isolated cells from tumor tissue in the mammary fat pad of SCID Beige mice (n=12/group). Flow cytometric analysis of CD44^+/CD24^−/low cell population was assayed using published methods.
The role of L-NMMA was then investigated, either alone or in combination with docetaxel in a different TNBC mouse model. Docetaxel (20 mg/kg at days 0 and 21) and 200 mg/kg L-NMMA (daily) were given to MDA-MB-231 xenograft-bearing mice for 31 days.

SUM159 xenografts = SUM159 xenografts treated with L-NMMA, docetaxel, combination; type: in vivo, mice
Experimental: as §2, §3
To answer this question, daily injections of 80 mg/kg L-NMMA were first given to SUM159 xenograft-bearing mice alone or in combination with docetaxel (20 mg/kg). […] The inventor next analyzed the impact on CSC self-renewal by the MSFE assay.

CC1=C(C(=O)OC(C)C)C(c2cccc([N+](=O)[O-])c2)C(C(=O)OC2CN(C(c3ccccc3)c3ccccc3)C2)=C(N)N1 (centres unmarked) [azelnidipine]
proliferation (SUM159): dose-dependent decrease in proliferation
proliferation (MDA-MB-231): dose-dependent decrease in proliferation

recombinant TGFβ1: recombinant human TGF-β1 (CHO cell derived)
PERK/eIF2α/ATF4/ATF3 axis (MCF10A): induced the PERK/eIF2α/ATF4/ATF3 axis

CCOC(=O)C1=C(C)NC(C)=C(C(=O)OCC)C1c1ccccc1/C=C/C(=O)OC(C)(C)C [lacidipine]
proliferation (SUM159): dose-dependent decrease in proliferation
proliferation (MDA-MB-231): dose-dependent decrease in proliferation

pembrolizumab: humanized monoclonal antibody of the IgG4/κ isotype blocking the interaction between PD-1 and its ligands
overall response rate ([1]; 10 mg/kg Q2W, 27 evaluable patients): 18.5%
PR, patients ([1]; 10 mg/kg Q2W): 14.8%
complete response (CR), patients ([1]; 10 mg/kg Q2W): 3.7%
progressive disease (PD), patients ([1]; 10 mg/kg Q2W): 48.1%
Grade ≥3 AEs, patients ([1]; five patients): 15.6%
median DoR ([1]; in vivo): not yet reached
median time to response ([1]; range: 7.3-32.4 weeks): 17.9 weeks
6-month PFS rate ([2]; 2 mg/kg Q3W): 34%
Grade 3-4 treatment-related fatigue, patients ([2]; 2 mg/kg, 178 patients): 1%
Grade 3-4 generalized edema and myalgia (each), patients ([2]; 2 mg/kg): 1%
Grade 3-4 treatment-related adverse events, patients ([2]; 2 mg/kg): 11%
6-month PFS rate ([2]; 10 mg/kg Q3W): 38%
Grade 3-4 treatment-related fatigue, patients ([2]; 10 mg/kg, 179 patients): < 1%
Grade 3-4 hypopituitarism, colitis, diarrhea, decreased appetite, hyponatremia, and pneumonitis (each), patients ([2]; 10 mg/kg): 1%
Grade 3-4 treatment-related adverse events, patients ([2]; 10 mg/kg): 14%
estimated 6-month PFS rate ([3]; pembrolizumab 10 mg/kg Q2W): 47.3%
estimated 6-month PFS rate ([3]; pembrolizumab 10 mg/kg Q3W): 46.4%
estimated 12-month survival rate ([3]; pembrolizumab Q2W): 74.1%
rate of Grade 3-5 treatment-related AEs ([3]; pembrolizumab Q2W): 13.3%
response rate ([3]; pembrolizumab Q2W): 33.7%
estimated 12-month survival rate ([3]; pembrolizumab Q3W): 68.4%
rate of Grade 3-5 treatment-related AEs ([3]; pembrolizumab Q3W): 10.1%
response rate ([3]; pembrolizumab Q3W): 32.9%
ORR ([4]; 10 mg/kg Q2W or 200 mg Q3W, n=174): 16%
responding patients with responses of 6 months or longer ([4]; 23 of 28): 82%
SAEs, patients ([4]; in vivo): 45%
dyspnea, patients ([4]; in vivo): 20%
fatigue, patients ([4]; in vivo): 46%
overall response rate (advanced melanoma): 24%
patients having a DoR of ≥6 months ([5]; 11 patients): 44%
responses ongoing at the time of the analysis, patients ([5]; 21 of 25): 85%
objective response rate (ORR) ([5]; 61 patients with PD-L1 strongly positive tumors, all partial responses): 41%

COC(=O)C1=C(C#N)NC(C)=C(C(=O)OC(C)C)C1c1cccc([N+](=O)[O-])c1 (centres unmarked) [nivaldipine]
proliferation (SUM159): dose-dependent decrease in proliferation
proliferation (MDA-MB-231): dose-dependent decrease in proliferation

ipilimumab: comparator in the KEYNOTE-006 melanoma study
estimated 6-month PFS rate ([3]; ipilimumab 3 mg/kg Q3W, four cycles): 26.5%
estimated 12-month survival rate ([3]; ipilimumab 3 mg/kg Q3W): 58.2%
rate of Grade 3-5 treatment-related AEs ([3]; ipilimumab 3 mg/kg Q3W): 19.9%
response rate ([3]; ipilimumab 3 mg/kg Q3W): 11.9%

CC(=O)O[C@@]12CO[C@@H]1C[C@H](O)[C@@]1(C)C(=O)[C@H](O)C3=C(C)[C@@H](OC(=O)[C@H](O)[C@@H](NC(=O)OC(C)(C)C)c4ccccc4)C[C@@](O)([C@@H](OC(=O)c4ccccc4)[C@H]21)C3(C)C [docetaxel]
limiting dilution assay, tumors (MDA-MB-231 xenografts; 5 weeks with 5×10^4 cells, vehicle 12/12): 8/12
limiting dilution assay, tumors (MDA-MB-231 xenografts; after six weeks, vehicle 6/12): 8/12
apoptosis levels (cleaved caspase-3) (MDA-MB-231 xenografts; relative to the combination group): higher apoptosis levels
limiting dilution assay, tumors (SUM159 xenografts; 7 weeks with 5×10^4 cells, vehicle 12/12): 12/12
CD44+/CD24−/low population (flow cytometry) (SUM159 xenografts; mouse, in vivo): slight increase
primary and secondary MSFE of single tumor cells isolated from tumor tissue (SUM159 xenografts; mouse, in vivo): dramatic increase
limiting dilution assay, tumors (SUM159 xenografts; week nine with 2×10^4 cells, vehicle 7/12): 3/12
